Patent US11285135B2 (AMGEN INC., priority 2016, dated 2022)
Read-outs that look alike come from different tables or passages of the source.

Columns and labels:
[1] = system: Phosphorylation of ERK½ in A549 cells; assay: Phospho-ERK½ MSD Assay in A549 cells; format: cell-based; details: 4 hours compound treatment, 10 ng/mL EGF for 10 min, read-out: p-ERK IC50 (A549)
Procedure: (§1) Phospho-ERK½ MSD Assay: MIA PaCa-2 (ATCC® CRL-1420™) and A549 (ATCC® CCL-185™) cells were cultured in RPMI 1640 Medium (ThermoFisher Scientific 11875093) containing 10% fetal bovine serum (ThermoFisher Scientific 16000044) and 1× penicillin-streptomycin-glutamine (ThermoFisher Scientific 10378016). Sixteen hours prior to compound treatment, MIA PaCa-2 or A549 cells were seeded in 96-well cell culture plates at a density of 25,000 cells/well and incubated at 37° C., 5% CO2. A compound dose-response titration was diluted in growth media, added to appropriate wells of a cell culture plate, and then incubated at 37° C., 5% CO2 for 4 hours. Following compound treatment, cells were stimulated with 10 ng/mL EGF (Roche 11376454001) for 10 min, washed with ice-cold Dulbecco's phosphate-buffered saline, no Ca^2+ or Mg^2+ (ThermoFisher Scientific 14190144), and then lysed in RIPA buffer (50 mM Tris-HCl pH 7.5, 1% Igepal, 0.5% sodium deoxycholate, 150 mM NaCl, and 0.5% sodium dodecyl sulfate) containing protease inhibitors (Roche 4693132001) and phosphatase inhibitors (Roche 4906837001). Cell lysates were stored frozen at −80° C. overnight. Phosphorylation of ERK½ in compound-treated lysates was assayed using Phospho-ERK½ Whole Cell Lysate kits (Meso Scale Discovery K151DWD) according to the manufacturer's protocol. Assay plates were read on a Meso Scale Discovery Sector Imager 6000, and data were analyzed using a 4-parameter logistic model to calculate IC50 values.

[2] = system: Phosphorylation of ERK½ in MIA PaCa-2 cells; assay: Phospho-ERK½ MSD Assay in MIA PaCa-2 cells; format: cell-based; details: 4 hours compound treatment, 10 ng/mL EGF for 10 min, read-out: p-ERK IC50 (MIA PaCa-2)
Procedure: as §1

[3] = molecular target: GDP-bound protein (aa 1-169), containing both G12C and C118A amino acid substitutions (Homo sapiens, UniProt P01116, C118A/G12C); assay: Coupled Nucleotide Exchange Assay (SOS-mediated nucleotide exchange, AlphaScreen); format: biochemical; details: 2 hours compound pre-incubation
Procedure: Coupled Nucleotide Exchange Assay: Purified GDP-bound […] protein (aa 1-169), containing both G12C and C118A amino acid substitutions and an N-terminal His-tag, was pre-incubated with a compound dose-response titration for 2 hours in assay buffer (25 mM HEPES pH 7.4, 10 mM MgCl2, and 0.01% Triton X-100). Following compound pre-incubation, purified SOS protein (aa 564-1049) and GTP (Roche 10106399001) were added to the assay wells and incubated for an additional hour. […] The assay plates were then read on a PerkinElmer EnVision Multilabel Reader, using AlphaScreen® technology, and data were analyzed using a 4-parameter logistic model to calculate IC50 values.

[4] = Homo sapiens, MIA PaCa-2, MIA PaCa-2 cells

GDP-bound protein (aa 1-169), containing both G12C and C118A amino acid substitutions, sequence (P01116 1-169 isoform P01116-2 G12C/C118A): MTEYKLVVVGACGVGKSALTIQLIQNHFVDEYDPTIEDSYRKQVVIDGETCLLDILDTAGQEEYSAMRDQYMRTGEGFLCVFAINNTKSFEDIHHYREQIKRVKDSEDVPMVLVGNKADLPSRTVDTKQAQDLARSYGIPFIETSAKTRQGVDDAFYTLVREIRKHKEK

## C=CC(=O)N1CCN(c2snc3c(F)c(-c4cc(O)cc5ccccc45)c(Cl)cc23)[C@H](CC)C1 (racemic) [Example 1-8]
[1]; Homo sapiens, A549, A549 cells
  IC50: > 100 µM
[2]; [4]
  IC50: 6.07 µM
[3]
  Coupled exchange IC50: 0.894 µM

## C=CC(=O)N1CCN(c2snc3c(F)c(-c4cc(O)cc5ccccc45)c(Cl)cc23)C[C@@H]1CO (racemic) [Example 1-16, 1-(4-(5-chloro-7-fluoro-6-(3-hydroxy-1-naphthalenyl)-2,1-benzothiazol-3-yl)-2-(hydroxmethyl)-1-piperazinyl)-2-propen-1-one]
[1]; Homo sapiens, A549, A549 cells
  IC50: > 100 µM
[2]; [4]
  IC50: 4.83 µM
[3]
  Coupled exchange IC50: 0.492 µM

## C=CC(=O)N1CCN(c2nc(=O)n(-c3ccncc3C3CC3)c3cc(-c4c(O)cccc4F)c(Cl)cc23)[C@@H](C)C1 (single isomer, unassigned) [Example 9-7-1]
[1]; A549 cells
  IC50: 14.9 µM
[2]; MIA PaCa-2 cells
  IC50: 0.023 µM

## C=CC(=O)N1CCN(c2nc(=O)n(-c3ccncc3C3CC3)c3cc(-c4c(O)cccc4F)c(Cl)cc23)[C@@H](C)C1 (single isomer, unassigned) [Example 9-7-2]
[1]; A549 cells
  IC50: 62 µM
[2]; MIA PaCa-2 cells
  IC50: 0.237 µM

## C=CC(=O)N1CCN(c2snc3cc(-c4cc(O)cc5ccccc45)c(Cl)cc23)CC1 [Example 1-3]
[1]; Homo sapiens, A549, A549 cells
  IC50: > 100 µM
[2]; [4]
  IC50: 3.84 µM

## C=CC(=O)N1CCN(c2snc3c(F)c(-c4cc(O)ccc4F)c(Cl)cc23)CC1 [Example 1-28, 1-(4-(5-chloro-7-fluoro-6-(2-fluoro-5-hydroxyphenyl)benzo[c]isothiazol-3-yl)piperazin-1-yl)prop-2-en-1-one]
[1]; Homo sapiens, A549, A549 cells
  IC50: > 100 µM
[3]
  Coupled exchange IC50: 2.20 µM

## C=CC(=O)NC1(CO)CN(c2snc3c(F)c(-c4cc(O)cc5ccccc45)c(Cl)cc23)C1 [Example 5-3, N-(1-(5-chloro-7-fluoro-6-(3-hydroxy-1-naphthalenyl)-2,1-benzothiazol-3-yl)-3-(hydroxymethyl)-3-azetidinyl)-2-propenamide]
[3]
  Coupled exchange IC50: 14.2 µM

## C=CC(=O)N1CCN(c2snc3c(F)c(-c4ncccc4Cl)c(Cl)cc23)CC1 [Example 6-2, 1-(4-(5-chloro-6-(3-chloro-2-pyridinyl)-7-fluoro-2,1-benzothiazol-3-yl)-1-piperazinyl)-2-propen-1-one]
[3]
  Coupled exchange IC50: 5.31 µM

## C=CC(=O)N1CCN(c2nc(=O)n(-c3ccccc3C(C)C)c3nc(-c4c(O)cccc4F)c(Cl)cc23)CC1 [Example 8-2, 6-chloro-7-(2-fluoro-6-hydroxyphenyl)-1-(2-(2-propanyl)phenyl)-4-(4-(2-propenoyl)-1-piperazinyl)pyrido[2,3-d]pyrimidin-2(1H)-one]
[1]; Homo sapiens, A549, A549 cells
  IC50: > 100 µM
[2]; [4]
  IC50: 0.05 µM

## C=CC(=O)N1CCN(c2nnc(-c3ccccc3C)c3cc(-c4c(O)cccc4F)c(Cl)cc23)CC1 [Example 10-1, 1-(4-(7-Chloro-6-(2-fluoro-6-hydroxyphenyl)-4-(2-methylphenyl)-1-phthalazinyl)-1-piperazinyl)-2-propen-1-one]
[3]
  Coupled exchange IC50: 24.5 µM

## C=CC(=O)N1CCN(c2nnc(Cl)c3cc(-c4c(O)cccc4F)c(Cl)cc23)CC1 [Example 10-13, 1-(4-(4,7-dichloro-6-(2-fluoro-6-hydroxyphenyl)-1-phthalazinyl)-1-piperazinyl)-2-propen-1-one]
[3]
  Coupled exchange IC50: 15.1 µM

## C=CC(=O)N1CCN(c2nnc(C3CCCC3)c3cc(-c4c(O)cccc4F)c(Cl)cc23)CC1 [Example 14, 1-(4-(7-Chloro-4-cyclopentyl-6-(2-fluoro-6-hydroxyphenyl)-1-phthalazinyl)-1-piperazinyl)-2-propen-1-one]
[3]
  Coupled exchange IC50: 2.69 µM

## C=CC(=O)N1CCN(c2nnc(N3CCCCC3)c3cc(-c4c(O)cccc4F)c(Cl)cc23)CC1 [Example 15, 1-(4-(7-Chloro-6-(2-fluoro-6-hydroxyphenyl)-4-(1-piperidinyl)-1-phthalazinyl)-1-piperazinyl)-2-propen-1-one]
[3]
  Coupled exchange IC50: 2.56 µM

## COc1cc(-c2c(Cl)cc3c(N4CCN(C(=O)/C=C/CN(C)C)CC4)snc3c2F)c2ccccc2c1 [Example 17-1, (2E)-1-(4-(5-Chloro-7-fluoro-6-(3-methoxy-1-naphthalenyl)-2,1-benzothiazol-3-yl)-1-piperazinyl)-4-(dimethylamino)-2-buten-1-one]
[3]
  Coupled exchange IC50: 20.6 µM

## C=C(CO)C(=O)N1CCN(c2snc3c(F)c(-c4cc(OC)cc5ccccc45)c(Cl)cc23)CC1 [Example 18-1, 1-(4-(5-chloro-7-fluoro-6-(3-methoxy-1-naphthalenyl)-2,1-benzothiazol-3-yl)-1-piperazinyl)-2-(hydroxymethyl)-2-propen-1-one]
[3]
  Coupled exchange IC50: 23.0 µM

## C=C(CO)C(=O)N1CCN(c2snc3c(F)c(-c4cc(O)cc5ccccc45)c(Cl)cc23)CC1 [Example 18-3, 1-(4-(5-chloro-7-fluoro-6-(3-hydroxy-1-naphthalenyl)-2,1-benzothiazol-3-yl)-1-piperazinyl)-2-(hydroxymethyl)-2-propen-1-one]
[3]
  Coupled exchange IC50: 24.6 µM

## C=CC(=O)N1CCN(c2snc3c(F)c(-c4cc(OC)cc5cnn(C)c45)c(Cl)cc23)CC1 [Example 19-1, 1-(4-(5-chloro-7-fluoro-6-(5-methoxy-1-methyl-1H-indazol-7-yl)-2,1-benzothiazol-3-yl)-1-piperazinyl)-2-propen-1-one]
[3]
  Coupled exchange IC50: 15.2 µM

## C=CC(=O)N1CCN(c2snc3c(F)c(-c4cc(O)cc5cn(C)nc45)c(Cl)cc23)CC1 [Example 19-3, 1-(4-(5-chloro-7-fluoro-6-(5-hydroxy-2-methyl-2H-indazol-7-yl)-2,1-benzothiazol-3-yl)-1-piperazinyl)-2-propen-1-one]
[3]
  Coupled exchange IC50: 115 µM

## C=C(CCO)C(=O)N1CCN(c2snc3c(F)c(-c4cc(O)cc5ccccc45)c(Cl)cc23)CC1 [Example 20, 1-(4-(5-chloro-7-fluoro-6-(3-hydroxy-1-naphthalenyl)-2,1-benzothiazol-3-yl)-1-piperazinyl)-4-hydroxy-2-methylidene-1-butanone]
[3]
  Coupled exchange IC50: 78.8 µM

## C=CC(=O)N1CCN(c2snc3c(F)c(-c4cc(O)cc5ncccc45)c(Cl)cc23)CC1 [Example 21, 1-(4-(5-chloro-7-fluoro-6-(7-hydroxy-5-quinolinyl)-2,1-benzothiazol-3-yl)-1-piperazinyl)-2-propen-1-one]
[3]
  Coupled exchange IC50: 9.41 µM

## C=CC(=O)N1CCN(c2snc3c(F)c(-c4nc(NC)cc5ccccc45)c(Cl)cc23)CC1 [Example 24, 1-(4-(5-Chloro-7-fluoro-6-(3-(methylamino)-1-isoquinolinyl)-2,1-benzothiazol-3-yl)-1-piperazinyl)-2-propen-1-one]
[3]
  Coupled exchange IC50: 6.20 µM

## C=CC(=O)N1CCN(c2nnc(-c3ccccc3)c3cc(Cl)c(-c4c(O)cccc4F)cc23)CC1 [Example 31, 2-(4-(4-acryloyl-1-piperazinyl)-7-chloro-1-phenyl-6-phthalazinyl)-3-fluorophenol]
[3]
  Coupled exchange IC50: 123 µM

## C=CC(=O)N1CCN(c2nnc(Cc3ccccc3)c3cc(Cl)c(Cl)cc23)CC1 [Example 34, 1-(4-Acryloyl-1-piperazinyl)-4-benzyl-6,7-dichlorophthalazine]
[3]
  Coupled exchange IC50: 34.2 µM

## C=CC(=O)N1CCN(c2nnc(Cc3ccccc3)c3cc(Cl)c(-c4c(O)cccc4F)cc23)CC1 [Example 36, 2-(4-(4-acryloyl-1-piperazinyl)-1-benzyl-7-chloro-6-phthalazinyl)-3-fluorophenol]
[3]
  Coupled exchange IC50: 39.8 µM
